Measured values: patent US20050222183A1, “Combination of zd6474, an inhibitor of the vascular endothelial growth factor receptor, with radiotherapy in the treatment of cancer” (priority 2002, published 2005)

Assays:
[1] = tested on: Calu-6 (lung carcinoma) tumour xenografts; experiment: Calu-6 xenograft model: ZD6474 25 mg/kg given after ionising radiation; format: in vivo, female Alderley Park nude mice
Experimental: Calu-6 (lung carcinoma) cells were obtained from the American Type Culture Collection (Manassas, Va.). All cell culture reagents, where not specified, were obtained from Life Technologies, Paisley, UK. Cells were maintained as exponentially growing monolayers in Eagle's Minimal Essential Medium (EMEM) containing 10% FCS (Labtech International, Ringmer, UK), 2 mM L-glutamine (Sigma Chemical Co., Poole, UK), 1% sodium pyruvate (100 mM) and 1% non-essential amino acids. Cells were periodically screened for the presence of microplasma in culture, and analysed for 15 types of virus in a mouse antibody production test (AstraZeneca Central Toxicology Laboratories, Alderley Park, UK) prior to routine use in vivo.
Calu-6 cells (2×10^7 cells/ml) were prepared for implantation in a mixture of 50% (v/v) matrigel (Fred Baker, Liverpool, UK) in serum free Roswell Park Memorial Institute (RPMI)-1640 media. Tumour xenografts were established by subcutaneously injecting 0.1 ml of the cell suspension (i.e. 2×10^6 cells/mouse) into female Alderley Park nude mice (nu/nu genotype; 8-10 weeks of age). Once a palpable tumour was evident, tumour volume was assessed daily by calliper measurement and calculated using the formula, length×width×height.
Mice were randomised into groups of eight, prior to treatment, when tumours measured 225-315 mm^3. Ionising radiation, where given, was administered at a dose rate of 2 Gy per min to unanaesthetised mice restrained in polyvinyl jigs with lead shielding and a cut away section to allow local irradiation of the tumour by the unilateral beam (Pantac X-ray set). Jigs were turned through 180° halfway through the radiation exposure time to provide a uniform dosing. Radiation was administered either as a single dose (5 Gy on day 1) or by multiple daily dosing (2 Gy/day on days 1-3). Thirty minutes after the last dose of radiation, ZD6474 (25 mg/kg), or vehicle, was administered by oral gavage (0.1 ml/10 g body weight) and then once-daily thereafter for a further 13 days (i.e. 14 days of oral treatment in total). ZD6474 was prepared as a suspension in 1% polysorbate 80 (i.e. a 1% (v/v) solution of polyoxyethylene (20) sorbitan mono-oleate in deionised water). Mice were humanely killed when the relative volume of their tumour reached four times that at the initiation of therapy (RTV4). A two-tailed two-sample t-test was used to evaluate the significance of the results obtained.

Calu-6 tumours = experiment: Calu-6 xenograft model: schedules, ZD6474 50 mg/kg concurrent or sequential with radiotherapy; format: in vivo, mice; conditions: for Growth delay (days ± SE): RTV4 relative to control
Experimental: In an analogous experiment using the Calu-6 xenograft model described hereinbefore different schedules were investigated.
Mice bearing Calu-6 tumours (220-300 mm^3) were randomized into groups of eight, to receive either ZD6474 (50 mg/kg p.o. once daily) or vehicle only (1% polysorbate in deionized water) for the duration of the experiment. ZD6474, or vehicle, was also administered with or without radiotherapy (3×2 Gy at 24-hour intervals during the first 3 days of treatment). Where mice received 50 mg/kg ZD6474 plus radiation therapy, two treatment schedules were examined. • a) Concurrent combination treatment: ZD6474 dosing given 2 hours prior to the first dose of radiation; and • b) Sequential combination treatment: ZD6474 dosing given 30 minutes after the last dose of radiotherapy. […]
Treatment efficacy was assessed by measuring the time for tumours to quadruple in volume (RTV4) from their pretreatment size and calculating the relative growth delay (i.e. comparing RTV4 values from individual treated groups, with that of the control).

SMILES: COc1cc2c(Nc3ccc(Br)cc3F)ncnc2cc1OCC1CCN(C)CC1 [ZD6474, 4-(4-bromo-2-fluoroanilino)-6-methoxy-7-(1-methylpiperidin-4-ylmethoxy)quinazoline]
- RTV4 ([1]; 3 × 2Gy (days 1-3), then ZD6474 25 mg/kg/day oral for 14 days post-irradiation): 28.1 days
- Therapeutic effect of radiation plus ZD6474 versus either therapy alone ([1]; 5 Gy or 3×2 Gy plus ZD6474 25 mg/kg): better therapeutic effect than either therapy alone
- RTV4 ([1]; 5 Gy single dose on day 1, then ZD6474 25 mg/kg/day oral for 14 days post-irradiation): 25.5 days
- RTV4 ([1]; ZD6474 25 mg/kg/day oral for 14 days, no radiation, time for tumour to reach four times its volume at initiation of therapy): 12.1 days
- Growth delay of combination versus either single treatment (Calu-6 tumours; 50 mg/kg ZD6474 combined with 3×2 Gy radiation): significantly greater than that of either single treatment alone
- RTV4 (days ± SE) (Calu-6 tumours; 50 mg/kg ZD6474 p.o. once daily, no radiation, n = 8): 17 ± 1.0 days
- Growth delay (days ± SE) (Calu-6 tumours; 50 mg/kg ZD6474 p.o. once daily, no radiation): 9 ± 1.1 days
- Growth delay (days ± SE) (Calu-6 tumours; 3 × 2 Gy plus 50 mg/kg ZD6474 (concurrent)): 22 ± 1.1 days
- RTV4 (days ± SE) (Calu-6 tumours; 3 × 2 Gy plus 50 mg/kg ZD6474 (concurrent: dosing begun 2 hours prior to first dose of radiation)): 30 ± 1.0 days
- Growth delay (days ± SE) (Calu-6 tumours; 3 × 2 Gy plus 50 mg/kg ZD6474 (sequential)): 36 ± 1.0 days
- RTV4 (days ± SE) (Calu-6 tumours; 3 × 2 Gy plus 50 mg/kg ZD6474 (sequential: dosing begun 30 minutes after last dose of radiotherapy)): 44 ± 0.9 days
- Tumour growth inhibition, sequential versus concurrent combination (Calu-6 tumours; 3×2 Gy radiation and 50 mg/kg ZD6474): inhibited tumour growth significantly more than when the same agents were combined concurrently
- Antitumour effect of sequential combination versus sum of individual therapies (Calu-6 tumours; sequential 3×2 Gy radiation and 50 mg/kg ZD6474): greater than the sum of the growth delays induced by the individual therapies
